# Active and inactive are the calls of the source.
# Assays:
# [1] = target: T1, Sentrin-specific protease 8 (Homo sapiens, UniProt Q96LD8); type: functional
# T1 sequence (Q96LD8 whole entry): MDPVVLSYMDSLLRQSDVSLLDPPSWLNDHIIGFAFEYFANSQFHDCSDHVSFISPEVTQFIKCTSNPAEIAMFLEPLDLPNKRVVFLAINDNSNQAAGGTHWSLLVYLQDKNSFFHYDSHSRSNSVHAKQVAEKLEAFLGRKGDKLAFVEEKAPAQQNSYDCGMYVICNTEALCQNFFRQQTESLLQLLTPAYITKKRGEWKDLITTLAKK
# [2] = target: T2, Histone-lysine N-methyltransferase NSD2 (Homo sapiens, UniProt O96028); type: biochemical
# T2 sequence (O96028 whole entry): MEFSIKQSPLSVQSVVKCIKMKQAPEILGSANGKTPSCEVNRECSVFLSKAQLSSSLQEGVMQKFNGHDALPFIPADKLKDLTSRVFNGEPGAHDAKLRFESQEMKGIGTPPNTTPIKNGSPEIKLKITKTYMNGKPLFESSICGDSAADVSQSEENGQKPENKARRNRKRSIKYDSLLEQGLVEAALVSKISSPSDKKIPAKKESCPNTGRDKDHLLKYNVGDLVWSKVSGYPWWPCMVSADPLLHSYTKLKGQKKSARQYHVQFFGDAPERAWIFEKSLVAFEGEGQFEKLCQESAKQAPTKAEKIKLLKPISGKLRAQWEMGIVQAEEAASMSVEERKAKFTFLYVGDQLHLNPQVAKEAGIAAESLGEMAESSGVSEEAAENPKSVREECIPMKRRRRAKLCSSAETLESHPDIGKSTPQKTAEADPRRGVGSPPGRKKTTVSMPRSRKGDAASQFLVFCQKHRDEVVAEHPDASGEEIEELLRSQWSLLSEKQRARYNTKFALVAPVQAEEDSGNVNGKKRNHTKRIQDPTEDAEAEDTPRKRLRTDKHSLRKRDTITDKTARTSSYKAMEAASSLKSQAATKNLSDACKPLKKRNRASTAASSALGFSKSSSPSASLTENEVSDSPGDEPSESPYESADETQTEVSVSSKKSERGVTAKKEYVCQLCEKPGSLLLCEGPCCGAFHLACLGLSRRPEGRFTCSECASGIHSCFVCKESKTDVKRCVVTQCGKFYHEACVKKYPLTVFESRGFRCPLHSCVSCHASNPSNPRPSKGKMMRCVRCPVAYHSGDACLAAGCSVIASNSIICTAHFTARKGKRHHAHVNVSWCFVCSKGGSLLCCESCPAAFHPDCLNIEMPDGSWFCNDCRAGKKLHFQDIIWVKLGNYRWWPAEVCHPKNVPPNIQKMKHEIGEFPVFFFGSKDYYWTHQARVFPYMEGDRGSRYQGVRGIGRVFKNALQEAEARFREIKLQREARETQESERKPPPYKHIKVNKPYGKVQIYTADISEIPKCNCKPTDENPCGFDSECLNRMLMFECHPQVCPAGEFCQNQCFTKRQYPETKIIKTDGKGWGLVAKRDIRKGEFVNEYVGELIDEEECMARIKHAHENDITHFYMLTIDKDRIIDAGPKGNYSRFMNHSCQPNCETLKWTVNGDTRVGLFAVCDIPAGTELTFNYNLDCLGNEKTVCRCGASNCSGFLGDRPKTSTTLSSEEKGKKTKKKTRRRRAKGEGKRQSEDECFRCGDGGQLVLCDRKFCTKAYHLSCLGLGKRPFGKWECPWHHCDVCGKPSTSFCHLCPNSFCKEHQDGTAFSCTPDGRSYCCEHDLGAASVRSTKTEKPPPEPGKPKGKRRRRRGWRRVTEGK
# [3] = target: T1, Sentrin-specific protease 8; type: functional; remark: listed apart in the source
# [4] = cytotoxicity toward DRD oncogenic fibroblasts, dose response, cell-based, non-viral oncogenic, luminescence (AID 1934); type: functional; details: Homo sapiens
# BJ [5] = experiment: cytotoxicity toward BJ-TERT fibroblasts, dose response, cell-based, RAS-independent, luminescence (AID 1933); type: functional; details: Homo sapiens
# BJ [6] = experiment: cells; type: functional, cell-based; details: Homo sapiens
# [7] = Luminescence Cell-Based Dose Response HTS to Identify Inhibitors of 5'UTR Stem-Loop Driven Prion Protein mRNA Translation in H4 Neuroglioblastoma Cells. [Related pubchem assays: 1827 (Project Summary), 1813 (Primary HTS)]; type: functional
# [8] = inhibitors of firefly luciferase expression or activity, dose response, H4 neuroglioma cells, luminescence (AID 1990); type: functional, cell-based
# BJ [9] = experiment: cytotoxicity toward BJ-TERT-LT-ST fibroblasts, dose response, cell-based, RAS-independent, luminescence (AID 1935); type: functional; details: Homo sapiens;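 note: BJ fibroblasts immortalized with TERT plus LT and ST oncogenes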
# Beta-galactosidase = Beta-galactosidase (Escherichia coli, UniProt Q8VNN2); experiment: Dose response counterscreen for EBI2 assay utilizing the enzyme, b-galactosidase.; type: functional
# Chain of Beta-galactosidase (Q8VNN2 whole entry): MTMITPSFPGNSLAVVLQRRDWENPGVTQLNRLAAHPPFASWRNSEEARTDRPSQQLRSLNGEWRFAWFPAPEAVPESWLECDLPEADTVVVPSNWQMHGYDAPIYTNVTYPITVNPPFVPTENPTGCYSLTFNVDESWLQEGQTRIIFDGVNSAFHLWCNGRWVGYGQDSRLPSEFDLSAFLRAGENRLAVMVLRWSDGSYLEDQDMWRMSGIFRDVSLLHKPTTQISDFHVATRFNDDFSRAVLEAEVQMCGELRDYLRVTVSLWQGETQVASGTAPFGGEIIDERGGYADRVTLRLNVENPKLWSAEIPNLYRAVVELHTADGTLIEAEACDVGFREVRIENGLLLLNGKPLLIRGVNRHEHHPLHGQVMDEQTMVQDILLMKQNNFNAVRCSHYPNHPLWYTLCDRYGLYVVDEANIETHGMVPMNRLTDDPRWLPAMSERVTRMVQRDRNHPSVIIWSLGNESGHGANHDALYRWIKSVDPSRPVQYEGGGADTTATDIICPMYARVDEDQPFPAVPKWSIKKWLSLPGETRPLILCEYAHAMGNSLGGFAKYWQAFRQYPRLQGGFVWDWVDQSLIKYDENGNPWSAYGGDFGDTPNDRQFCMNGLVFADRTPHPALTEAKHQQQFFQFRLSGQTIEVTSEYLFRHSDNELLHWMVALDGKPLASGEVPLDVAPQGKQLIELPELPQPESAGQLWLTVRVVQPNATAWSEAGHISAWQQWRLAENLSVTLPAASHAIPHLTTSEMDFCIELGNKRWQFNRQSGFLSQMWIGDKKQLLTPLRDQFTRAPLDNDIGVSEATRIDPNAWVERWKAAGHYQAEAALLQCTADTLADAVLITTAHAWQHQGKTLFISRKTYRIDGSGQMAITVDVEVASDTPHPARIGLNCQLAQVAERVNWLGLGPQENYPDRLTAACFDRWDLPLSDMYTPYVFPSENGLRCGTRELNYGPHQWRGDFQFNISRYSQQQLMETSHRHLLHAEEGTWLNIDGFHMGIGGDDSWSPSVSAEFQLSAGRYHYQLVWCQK
# [10] = inhibitors of SNCA 5'UTR-driven reporter translation, confirmation, H4 neuroglioma cells, luminescence (AID 1988); type: functional, cell-based
# [11] = LGR2 antagonists, dose response, cell-based, HEK293, CRE-luciferase reporter, cherry pick, set 2 (AID 743343); type: functional;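 note: transfected cells were stimulated with diluted bursicon conditioned medium after compound addition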
# [12] = HepG2 cell cytotoxicity, dose response, cytotoxicity control, plate reader, cherry-pick, antagonist series (AID 743416); type: functional, cell-based
# [13] = MC4R antagonists, dose response, counter-screen for LGR2 antagonist project, cell-based, plate reader, cherry pick (AID 743444); type: functional;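 note: transfected HEK 293 cells stimulated with alpha-MSH peptide; potency of inhibitors of the alpha-MSH evoked signal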
# [14] = inhibitors of intracellular T. cruzi replication, confirmation, NIH3T3 host cells, beta-gal luminescence (AID 2044); type: functional, cell-based;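 note: intracellular parasites grown in NIH/3T3 mouse fibroblasts as host cells; luminescent beta-galactosidase reporter signal from transgenic T. cruzi replicating inside host cells; inhibitors lower the luminescence signal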
# [15] = cytotoxicity toward NIH3T3 fibroblasts, dose response, counter-screen, cell-based, ATP luminescence, mouse fibroblasts (AID 2010); type: functional;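 note: cells exposed to compound for about 90 hours before reading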
# [16] = A549 cell cytotoxicity, dose response, cytotoxicity control, plate reader, cherry-pick, antagonist series (AID 743412); type: functional, cell-based
# [17] = HepG2 cell cytotoxicity, dose response, cytotoxicity control, plate reader, dry powder samples (AID 1159569); type: functional, cell-based;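 note: inhibitor potency with signal falling toward the positive control level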
# [18] = P. falciparum ATP4 D1247Y mutant growth inhibitors, dose response, NITD609-resistant line, SYBR Green, dry powder (AID 1159571); type: functional, cell-based;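 note: parasites synchronized at ring stage by sorbitol before testing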
# [19] = P. falciparum Dd2 growth inhibitors, dose response, SYBR Green, dry powder samples (AID 1159566); type: functional, cell-based;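 note: potency for growth inhibition with lower SYBR green DNA signal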
# [20] = P. falciparum Dd2 growth inhibitors, dose response, SYBR Green, cherry-picked samples (AID 1159567); type: functional, cell-based
# [21] = P. falciparum 3D7-ScDHODH growth inhibitors, dose response, SYBR Green, dry powder samples (AID 1159570); type: functional, cell-based;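 note: parasite growth measured after 72 hours of compound exposure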
compound,measurement,setting,value
COc1ccc(-c2ccc(C(c3c(C)n[nH]c3O)c3c(C)n[nH]c3O)o2)c([N+](=O)[O-])c1,IC50,[1],15.6 µM (active)
same,AC50,[2],> 20 µM (inactive)
same,IC50,[3],28.7 µM (active)
COc1ccccc1N1CCN(C(=O)c2ccc3[nH]c(C)c(C)c3c2)CC1,EC50,[4],2.4 µM (active)
same,EC50,BJ [5],2.61 µM (active)
same,EC50,BJ [6],68.5 µM (active)
same,EC50,[7],2.14 µM (active)
same,EC50,[8],3.53 µM (active)
same,EC50,BJ [9],2.22 µM (inconclusive)
same,IC50,Beta-galactosidase,> 80 µM (inactive)
same,EC50,[10],0.19 µM (active)
C=CCN1CCN(C(=O)CCCc2ccccc2)CC1,EC50,[7],6.53 µM (active)
same,AC50,[11],5.97 µM (active)
same,EC50,[8],7.4 µM (inconclusive)
same,AC50,[12],> 52 µM (inactive)
same,EC50,[10],3.79 µM (active)
same,AC50,[13],8.87 µM (active)
CCN1CCN(C(=O)/C=C/c2ccc(C(C)C)cc2)CC1,IC50,Beta-galactosidase,> 80 µM (inactive)
O=C(Nc1ccccc1N1CCCC1)c1ccc([N+](=O)[O-])o1,IC50,[1],66.9 µM (inactive)
same,EC50,[14],0.105 µM (active)
same,IC50,[3],31.3 µM (active)
same,EC50,[15],13.5 µM (active)
CO[C@@H]1CN(C)C(=O)c2cc(NC(C)=O)ccc2OC[C@@H](C)N(Cc2ccc(F)cc2)C[C@@H]1C,AC50,[11],42.9 µM (active)
same,AC50,[13],10.7 µM (active)
same,AC50,[16],> 47 µM (inactive)
COc1ccc2c3c([nH]c2c1)[C@H](CO)N(C(=O)Nc1ccc(F)cc1)CC31CCN(S(=O)(=O)c2ccccc2)CC1,AC50,[17],48.9 µM (active)
same,AC50,[18],0.417 µM (active)
same,AC50,[19],1.3 µM (active)
same,AC50,[20],0.909 µM (active)
same,AC50,[21],2.14 µM (active)
C[C@H]1CN([C@@H](C)CO)C(=O)c2c(c3ccccc3n2C)-c2ccccc2CO[C@H]1CN(C)S(=O)(=O)c1ccc(Cl)cc1,AC50,[17],41.2 µM (active)
same,AC50,[18],0.154 µM (active)
same,AC50,[19],0.108 µM (active)
same,AC50,[20],0.396 µM (active)
same,AC50,[21],0.134 µM (active)

# — ChEMBL document CHEMBL1201862, “PubChem BioAssay data set” (2004)
